According to patent publication US8222380B2, “Amorphous telithromycin compound” (Sandoz AG, priority 2006, dated 2012):

Key:
[1] = Stability of the amorphous state on storage judged by XRPD; format: physicochemical; details: after 8 weeks of storage
Description: The invention therefore relates to a stable amorphous form of telithromycin (3-De[(2,6-dideoxy-3-C-methyl-3-O-methyl-α-L-ribohexopyranosyl)oxy]-11,12-dideoxy-6-O-methyl-3-oxo-12,11-[oxycarbonyl[[4-[4-(3-pyridinyl)-1H-imidazol-1-yl]butyl]imino]]erythromycin). […] The stable amorphous form of telithromycin as obtained according to example 2 was analyzed by X-ray powder diffraction diagrams, measured using an AXS-Bruker D-8 diffractometer (Cu-radiation, Bragg Brentano Optics, 40 kV, 40 mA, steps 0.01°, time 2 seconds, cut-off 40°, standard sample carrier).

[2] = Stress storage in closed vial, impurity increase by HPLC; format: physicochemical; details: closed vial at 80° C. for 24 hours; spray-dried sample of Example 1
Description: The sample was stressed in a closed vial at 80° C. for 24 hours. An increase in impurities of 0.2 area % was observed when measured by HPLC under the following conditions: column: symmetry C18 3.5 μm; eluent: buffer pH 4.4 (4.76 g KH2PO4 in 2000 ml H2O adjusted to pH 4.4 using H3PO4), acetonitrile (2000 ml buffer+666 ml acetonitrile); measurement at a wavelength of 205 nm; inj. Vol […]; temperature 40° C.

increase in impurities measured by HPLC [2]: 0.2 area %
Compound: CCC1OC(=O)[C@H](C)C(=O)[C@H](C)[C@@H](OC2OC(C)CC(N(C)C)C2O)[C@](C)(OC)C[C@@H](C)C(=O)[C@H](C)[C@H]2N(CCCCn3cnc(-c4cccnc4)c3)C(=O)O[C@]12C (stereo partly drawn) [amorphous telithromycin, 3-De[(2,6-dideoxy-3-C-methyl-3-O-methyl-α-L-ribohexopyranosyl)oxy]-11,12-dideoxy-6-O-methyl-3-oxo-12,11-[oxycarbonyl[[4-[4-(3-pyridinyl)-1H-imidazol-1-yl]butyl]imino]]erythromycin]
presence of crystalline telithromycin as judged by X-ray powder diffractogram [1]: no signs of the presence of crystalline telithromycin
